Measured values as given in the supplement of paper PMC10627819.

How the values were obtained:
Experiment in all cases: Bliss interaction score (quartile over a dose matrix) (fitness difference); higher = more antagonism (negative = synergy)
B. subtilis 168 = tested on: B. subtilis 168
Method in brief: (§1)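 The Bliss score is observed fitness minus expected fitness, where the expected value is the product of single-drug fitness values inferred from combination data. Fitness is OD595 at entry into stationary phase normalised to the plate's robust no-drug mean and capped at 1. Scores are reported as quartiles spanning technical, biological and donor/recipient replicates.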

S. aureus DSM 20231 = tested on: S. aureus DSM 20231
Method in brief: as §1

S. aureus Newman = tested on: S. aureus Newman
Method in brief: as §1

S. pneumoniae D39V = tested on: S. pneumoniae D39V
Method in brief: as §1
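Further: first quartile when negative (synergy) and third quartile when positive (antagonism).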

With `CC1(C)S[C@@H]2[C@H](NC(=O)[C@H](N)c3ccc(O)cc3)C(=O)N2[C@H]1C(=O)O` [Amoxicillin] + CO[C@@]12[C@H](COC(N)=O)C3=C(C(=O)C(C)=C(N)C3=O)N1C[C@@H]1N[C@@H]12 [MitomycinC] as the compound, how does the Bliss interaction score (B. subtilis 168) read?
Its Bliss interaction score is 0.0389.

And the Bliss interaction score (S. aureus DSM 20231)?
Its Bliss interaction score is -0.0743.

And the Bliss interaction score (S. aureus Newman)?
The Bliss interaction score was 0.0558.

What about the Bliss interaction score (S. pneumoniae D39V) of the same compound?
The Bliss interaction score was 0.0839.

How did the Bliss interaction score (B. subtilis 168; main component drawn) turn out when `C[C@H]1COc2c(N3CCN(C)CC3)c(F)cc3c(=O)c(C(=O)O)cn1c23` [Levofloxacin] + CCCCCCCCCC(=O)N[C@@H]1[C@H]([C@@H]([C@H](O[C@H]1OC2=C3C=C4C=C2OC5=C(C=C(C=C5)[C@H]([C@H]6C(=O)N[C@@H](C7=C(C(=CC(=C7)O)OC8[C@H]([C@H]([C@@H]([C@H](O8)CO)O)O)O)C9=C(C=CC(=C9)[C@H](C(=O)N6)NC(=O)[C@@H]4NC(=O)[C@@H]1C2=CC(=CC(=C2)OC2=C(C=CC(=C2)[C@H](C(=O)N[C@H](CC2=CC(=C(O3)C=C2)Cl)C(=O)N1)N)O)O)O)C(=O)O)O[C@H]1[C@@H]([C@H]([C@@H]([C@H](O1)CO)O)O)NC(=O)C)Cl)CO)O)O [Teicoplanin] was run?
The Bliss interaction score was 0.0334.

What about the Bliss interaction score (S. aureus DSM 20231; main component drawn) of the same compound?
Its Bliss interaction score is -0.0673.

And the Bliss interaction score (S. aureus Newman; main component drawn)?
The Bliss interaction score was -0.0552.

What about the Bliss interaction score (S. pneumoniae D39V; main component drawn) of the same compound?
The Bliss interaction score was -0.0681.

Which Bliss interaction score (B. subtilis 168) does the source give for `C[C@H]1COc2c(N3CCN(C)CC3)c(F)cc3c(=O)c(C(=O)O)cn1c23` [Levofloxacin] + CN[C@H](CC(C)C)C(=O)N[C@H]1C(=O)N[C@@H](CC(N)=O)C(=O)N[C@H]2C(=O)N[C@H]3C(=O)N[C@H](C(=O)N[C@H](C(=O)O)c4cc(O)cc(O)c4-c4cc3ccc4O)[C@H](O[C@H]3C[C@](C)(N)[C@@H](O)[C@H](C)O3)c3ccc(c(Cl)c3)Oc3cc2cc(c3O[C@@H]2O[C@H](CO)[C@@H](O)[C@H](O)[C@H]2O[C@H]2C[C@](C)(NCc3ccc(-c4ccc(Cl)cc4)cc3)[C@@H](O)[C@H](C)O2)Oc2ccc(cc2Cl)[C@H]1O [Oritavancin] here?
The Bliss interaction score was 0.031.

What about the Bliss interaction score (S. aureus DSM 20231) of the same compound?
Its Bliss interaction score is 0.0291.

And the Bliss interaction score (S. aureus Newman)?
Its Bliss interaction score is 0.0454.

And the Bliss interaction score (S. pneumoniae D39V)?
Its Bliss interaction score is -0.0616.

With `CO/N=C(\C(=O)N[C@@H]1C(=O)N2C(C(=O)[O-])=C(C[N+]3(C)CCCC3)CS[C@H]12)c1csc(N)n1` [Cefepime] + CC1(C)S[C@@H]2[C@H](NC(=O)Cc3ccccc3)C(=O)N2[C@H]1C(=O)O [PenicillinG] as the compound, how does the Bliss interaction score (B. subtilis 168) read?
The Bliss interaction score was -0.0668.

What about the Bliss interaction score (S. aureus DSM 20231) of the same compound?
The Bliss interaction score was 0.0733.

And the Bliss interaction score (S. aureus Newman)?
Its Bliss interaction score is -0.0463.

What about the Bliss interaction score (S. pneumoniae D39V) of the same compound?
The Bliss interaction score was -0.0873.

How did the Bliss interaction score (B. subtilis 168; main component drawn) turn out when `CN(C)C(=O)C(CCN1CCC(O)(c2ccc(Cl)cc2)CC1)(c1ccccc1)c1ccccc1` [Loperamide] + CCCCCCCCCC(=O)N[C@@H]1[C@H]([C@@H]([C@H](O[C@H]1OC2=C3C=C4C=C2OC5=C(C=C(C=C5)[C@H]([C@H]6C(=O)N[C@@H](C7=C(C(=CC(=C7)O)OC8[C@H]([C@H]([C@@H]([C@H](O8)CO)O)O)O)C9=C(C=CC(=C9)[C@H](C(=O)N6)NC(=O)[C@@H]4NC(=O)[C@@H]1C2=CC(=CC(=C2)OC2=C(C=CC(=C2)[C@H](C(=O)N[C@H](CC2=CC(=C(O3)C=C2)Cl)C(=O)N1)N)O)O)O)C(=O)O)O[C@H]1[C@@H]([C@H]([C@@H]([C@H](O1)CO)O)O)NC(=O)C)Cl)CO)O)O [Teicoplanin] was run?
The Bliss interaction score was 0.0883.

What about the Bliss interaction score (S. aureus DSM 20231; main component drawn) of the same compound?
Its Bliss interaction score is -0.114.

And the Bliss interaction score (S. aureus Newman; main component drawn)?
The Bliss interaction score was -0.0955.

And the Bliss interaction score (S. pneumoniae D39V; main component drawn)?
Its Bliss interaction score is -0.0953.

`CO/N=C(\C(=O)N[C@@H]1C(=O)N2C(C(=O)[O-])=C(C[N+]3(C)CCCC3)CS[C@H]12)c1csc(N)n1` [Cefepime] + CO/N=C(\C(=O)N[C@@H]1C(=O)N2C(C(=O)O)=C(COC(N)=O)CS[C@H]12)c1ccco1 [Cefuroxime] was tested. Which Bliss interaction score (B. subtilis 168) did it give?
Its Bliss interaction score is -0.0417.

What about the Bliss interaction score (S. aureus DSM 20231) of the same compound?
Its Bliss interaction score is 0.0866.

What about the Bliss interaction score (S. aureus Newman) of the same compound?
The Bliss interaction score was 0.0741.

And the Bliss interaction score (S. pneumoniae D39V)?
Its Bliss interaction score is -0.0435.

`CN(C)C(=O)C(CCN1CCC(O)(c2ccc(Cl)cc2)CC1)(c1ccccc1)c1ccccc1` [Loperamide] + CN[C@H](CC(C)C)C(=O)N[C@H]1C(=O)N[C@@H](CC(N)=O)C(=O)N[C@H]2C(=O)N[C@H]3C(=O)N[C@H](C(=O)N[C@H](C(=O)O)c4cc(O)cc(O)c4-c4cc3ccc4O)[C@H](O[C@H]3C[C@](C)(N)[C@@H](O)[C@H](C)O3)c3ccc(c(Cl)c3)Oc3cc2cc(c3O[C@@H]2O[C@H](CO)[C@@H](O)[C@H](O)[C@H]2O[C@H]2C[C@](C)(NCc3ccc(-c4ccc(Cl)cc4)cc3)[C@@H](O)[C@H](C)O2)Oc2ccc(cc2Cl)[C@H]1O [Oritavancin] was tested. Which Bliss interaction score (B. subtilis 168) did it give?
The Bliss interaction score was 0.0335.

And the Bliss interaction score (S. aureus DSM 20231)?
The Bliss interaction score was -0.11.

And the Bliss interaction score (S. aureus Newman)?
Its Bliss interaction score is -0.062.

What about the Bliss interaction score (S. pneumoniae D39V) of the same compound?
Its Bliss interaction score is -0.0409.

For `CO/N=C(\C(=O)N[C@@H]1C(=O)N2C(C(=O)[O-])=C(C[N+]3(C)CCCC3)CS[C@H]12)c1csc(N)n1` [Cefepime] + O=C(O)c1cn(C2CC2)c2cc(N3CCNCC3)c(F)cc2c1=O [Ciprofloxacin], which Bliss interaction score (B. subtilis 168) is on record?
Its Bliss interaction score is -0.193.

What about the Bliss interaction score (S. aureus DSM 20231) of the same compound?
The Bliss interaction score was -0.0463.

What about the Bliss interaction score (S. aureus Newman) of the same compound?
Its Bliss interaction score is 0.0601.

What about the Bliss interaction score (S. pneumoniae D39V) of the same compound?
The Bliss interaction score was 0.147.

With `CC1(C)S[C@@H]2[C@H](NC(=O)[C@H](N)c3ccc(O)cc3)C(=O)N2[C@H]1C(=O)O` [Amoxicillin] + O=C(O)[C@H]1/C(=C/CO)O[C@@H]2CC(=O)N21 [Clavulanic] as the compound, how does the Bliss interaction score (B. subtilis 168) read?
The Bliss interaction score was -0.152.

What about the Bliss interaction score (S. aureus DSM 20231) of the same compound?
Its Bliss interaction score is -0.114.

And the Bliss interaction score (S. aureus Newman)?
The Bliss interaction score was -0.117.

And the Bliss interaction score (S. pneumoniae D39V)?
The Bliss interaction score was -0.0705.

With `CO/N=C(\C(=O)N[C@@H]1C(=O)N2C(C(=O)[O-])=C(C[N+]3(C)CCCC3)CS[C@H]12)c1csc(N)n1` [Cefepime] + CO/N=C(\C(=O)N[C@@H]1C(=O)N2C(C(=O)O)=C(COC(C)=O)CS[C@H]12)c1csc(N)n1 [Cefotaxime] as the compound, how does the Bliss interaction score (B. subtilis 168) read?
The Bliss interaction score was 0.0354.

And the Bliss interaction score (S. aureus DSM 20231)?
The Bliss interaction score was 0.0767.

What about the Bliss interaction score (S. aureus Newman) of the same compound?
Its Bliss interaction score is 0.0764.

What about the Bliss interaction score (S. pneumoniae D39V) of the same compound?
The Bliss interaction score was 0.0698.

What does the source list for `CCN(CC)CCOC(=O)c1ccc(N)cc1` [Procaine] + C/C(=C\C(=O)OCCCCCCCCC(=O)O)C[C@@H]1OC[C@H](C[C@@H]2O[C@H]2[C@@H](C)[C@H](C)O)[C@@H](O)[C@H]1O [Pseudomonic acid]?
Bliss interaction score (B. subtilis 168): 0.0611; Bliss interaction score (S. aureus DSM 20231): 0.0122; Bliss interaction score (S. aureus Newman): 0.0207; Bliss interaction score (S. pneumoniae D39V): -0.0844

`CO/N=C(\C(=O)N[C@@H]1C(=O)N2C(C(=O)[O-])=C(C[N+]3(C)CCCC3)CS[C@H]12)c1csc(N)n1` [Cefepime] + COc1cccc2c1C(=O)c1c(O)c3c(c(O)c1C2=O)C[C@@](O)(C(=O)CO)C[C@@H]3O[C@H]1C[C@H](N)[C@H](O)[C@H](C)O1 [Doxorubicin] was tested. Which Bliss interaction score (B. subtilis 168) did it give?
Its Bliss interaction score is -0.239.

And the Bliss interaction score (S. aureus DSM 20231)?
The Bliss interaction score was -0.1.

What about the Bliss interaction score (S. aureus Newman) of the same compound?
The Bliss interaction score was -0.0429.

What about the Bliss interaction score (S. pneumoniae D39V) of the same compound?
Its Bliss interaction score is 0.0847.

For `CC1(C)S[C@@H]2[C@H](NC(=O)[C@H](N)c3ccc(O)cc3)C(=O)N2[C@H]1C(=O)O` [Amoxicillin] + Oc1cc(Cl)ccc1Oc1ccc(Cl)cc1Cl [Triclosan], which Bliss interaction score (B. subtilis 168) is on record?
Its Bliss interaction score is -0.0443.

What about the Bliss interaction score (S. aureus DSM 20231) of the same compound?
The Bliss interaction score was 0.028.

What about the Bliss interaction score (S. aureus Newman) of the same compound?
The Bliss interaction score was 0.0346.

And the Bliss interaction score (S. pneumoniae D39V)?
Its Bliss interaction score is -0.0734.
